From patent US11369618B2, “Compounds, compositions and methods for prevention and/or treatment of cancer” (THE TRUSTEES OF THE UNIVERSITY OF PENNSYLVANIA, priority 2016, dated 2022) come the findings set out here.

The test system of data set [1] is mouse and human melanoma cell lines (B16F10, WM46, WM51, WM3702). Kind of data set: melanin assay (differentiation) of mouse and human melanoma cell lines in vitro. The class given is cell-based. Conditions: estrogen 25 nM E2, G-1 100 nM, vs delivery vehicle. The text has this: (§1) FIGS. 4A-4F illustrate the finding that GPER signaling slows proliferation and drives differentiation in mouse and human melanoma. FIG. 4A: 5 day proliferation assay of B16F10, WM46 (BRAF^V600E), WM51 (BRAF^V600E), and WM3702 (NRAS^Q61L) cells treated with estrogen (E2), * denotes significance by a two-tailed T-test, n=3 per group. FIG. 4B: 5 day melanin assay of B16F10, WM46 (BRAF^V600E), WM51 (BRAF^V600E), and WM3702 (NRAS^Q61L) cells treated with E2, * denotes significance by a two-tailed T-test, n=3 per group. FIG. 4C: 5 day proliferation assay of B16F10, WM46 (BRAF^V600E), WM51 (BRAF^V600E) and WM3702 (NRAS^Q61L) cells treated with GPER agonist (G-1), * denotes significance by a two-tailed T-test, n=3 per group. FIG. 4D: 5 day melanin assay of B16F10, WM46 (BRAF^V600E), WM51 (BRAF^V600E), and WM3702 (NRAS^Q61L) cells treated with G-1, * denotes significance by a two-tailed T-test, n=3 per group. FIG. 4E: 3 day proliferation assay of B16F10 cells treated with a dose response of G-1, * denotes significance One-way ANOVA with Tukey's multiple comparison test, n=5 per group. FIG. 4F: Western blot of B16F10 cells treated for 16 hours with a saturating dose response of G-1. […]
(§2) Tumor cell proliferation slowed in both mouse and human melanoma cells following treatment with estrogen or G-1, a specific GPER agonist. […] Cell proliferation and differentiation (melanin production) were measured.

For data set [2] the test system is unchanged. Kind of data set: proliferation assay of mouse and human melanoma cell lines in vitro. The class given is cell-based. Conditions: estrogen 25 nM E2, G-1 100 nM, vs delivery vehicle.
From the text: as §1, §2

Data set [3] concerns pCREB and c-Myc in NSCLC line LLC1. Kind of data set: Western blot of LLC1 cells treated with G-1. Conditions: LLC1, 500 nM. The class given is cell-based. As to the method:
(§3) FIGS. 18A-18G illustrate the finding that GPER signaling reduces NSCLC cell proliferation in vitro and in vivo and has combinatorial effects with αPD-1 immunotherapy. FIG. 18A: Western blot for pCREB of LLC1 cells treated with 500 nM G-1 for 30 minutes. FIG. 18B: Proliferation assay of LLC1 treated with 500 nM G-1 for 6 days. FIG. 18C: Western blot for c-Myc of LLC1 cells treated with 500 nM G-1 for 6 days. FIG. 18D: Western blot for c-Myc of LLC1 cells treated with 500 nM G-1 over a time-course. […] FIG. 18F: Tumor volumes over time of LLC1 tumor bearing mice treated with vehicle or G-1, as well as αPD-1 antibody or isotype antibody control (2A3). FIG. 18G: Survival curve of mice treated with vehicle or G-1, as well as αPD-1 antibody or isotype antibody control (2A3).
Reproductive history influences lung cancer as well. Women have a decreasing risk of lung cancer correlated with the number children they have had.
Background: In western blotting, separated proteins are transferred to a membrane and probed.

A further data set concerns B16F10 melanoma. Kind of data set: B16F10 melanoma-bearing syngeneic mice treated with subcutaneous G-1, αPD-1 antibody, or both. In kind it is in vivo. The text has this:
FIGS. 14A-14F illustrate the finding that treatment of melanoma bearing mice with G-1 and αPD-1 immunotherapy dramatically extends survival. FIG. 14A: Experimental timeline of B16F10 bearing mice treated with vehicle or G-1, as well as αPD-1 antibody or isotype antibody control (2A3), n=10 per group. FIG. 14B: Tumor volumes of treatment groups at Day 14, * denotes significance One-way ANOVA with Tukey's multiple comparison test. FIG. 14C: Survival curve of mice treated with vehicle or G-1, as well as isotype antibody control (2A3) or αPD-1 antibody. FIG. 14D: Experimental outline of YUMM1.7 bearing mice treated with vehicle or G-1, as well as isotype antibody control (2A3) or αPD-1 antibody. Treatment was started at day 14 after tumors reached 4-5 mm in diameter. n=5 per group. FIG. 14E: Tumor volumes over time of treatment groups. FIG. 14F: Survival curve of mice treated with vehicle or G-1, as well as αPD-1 antibody or isotype antibody control (2A3).
To determine whether G-1 has therapeutic utility as a systemically delivered agent with or without immune checkpoint inhibitors, B16F10 melanoma-bearing syngeneic mice were treated with subcutaneous G-1, αPD-1 antibody, or both, and survival compared to matched mice treated with vehicle and isotype antibody controls (in particular, non-specific isotype control antibody 2A3) (FIG. 14A). Total tumor volume was assessed after 5-50 days.

The next data set deals with normal human melanocytes. Kind of data set: differentiation of normal human melanocytes after continuous or transient hormone exposure (melanin, RNAseq, Western blot). In kind it is cell-based. As to conditions: normal human melanocytes, hormone or agonist exposure. Here is the method:
FIG. 11A: Long-term melanin assay in which normal human melanocytes were transiently treated with progesterone (P4), or estrogen (E2). Subsets of these groups (Red) were treated with an additional transient pulse of P4 at Day 27. Error bars equal the standard deviation of the samples. FIG. 11B: Western blot of melanocyte differentiation markers after a transient, 4-day treatment with either vehicle or estrogen, followed by an 8 day withdraw period. FIG. 11C: Experimental timeline of estrogen or GPER agonist (G-1) pre-treatment of mouse and human melanoma cells, n=5 per group. FIG. 11D: Relative tumor weights of mouse and human melanomas pre-treated with estrogen, * denotes significance by the Mann-Whitney test. FIG. 11E: Relative tumor weights of mouse and human melanomas pre-treated with G-1, * denotes significance by the Mann-Whitney test.
Normal human melanocytes received a pulse-treatment of estrogen—this consisted of 4 days of estrogen treatment followed by an 8 day withdraw.
To test whether pregnancy-associated hormones induce long-lasting changes in melanocyte differentiation that may affect their future susceptibility to transformation, primary human melanocytes were transiently exposed to estrogen or progesterone (FIGS. 11A-11E).
A subset of cells differentiated by transient exposure to estrogen was subsequently treated with progesterone.

The next data set deals with LLC1 tumors. Nature of the data set: LLC1 tumor bearing mice treated with subcutaneous G-1, αPD-1 antibody, or both. In kind it is in vivo, mouse. As to the method: as §3
To test whether G-1 had activity in vivo and synergizes with PD-1 immunotherapy, LLC1 tumors were grown in mice that were treated with subcutaneous G-1, αPD-1 antibody, or both, and survival compared to matched mice treated with vehicle and isotype antibody controls.

Data set [4] deals with c-Myc and pRB in syngeneic pancreatic ductal adenocarcinoma (PDAC) cell lines. Nature of the data set: Western blot of PDAC cell lines treated with G-1. Conditions: 500 nM, 1 hour.
Experimental: FIG. 17A: Western blot of c-Myc in several PDAC cell lines treated with 500 nM G-1 for 1 hour.
Using a newly available set of syngeneic pancreatic ductal adenocarcinoma (PDAC) cell lines, the effects of GPER activation on the levels of c-Myc protein were examined.

For the compound `CC(=O)c1ccc2c(c1)[C@@H]1C=CC[C@@H]1[C@H](c1cc3c(cc1Br)OCO3)N2` (relative stereo) [Compound G-1, rel-1-[4-(6-bromo-1,3-benzodioxol-5-yl)-3aR,4S,5,9bS-tetrahydro-3H-cyclopenta[c]quinolin-8-yl]-ethanone], in data set [1], the “differentiation (melanin production)” value is “drove differentiation”. In data set [2], the melanoma cell proliferation result was “slowed melanoma cell proliferation”. In addition, the pCREB levels entry in data set [3] (30 minutes) is “elevated pCREB levels”. The c-Myc protein result in data set [3] (long-term treatment (6 days)) was “reduction of c-Myc protein”. In the data set with B16F10 melanoma (B16F10-bearing mice), the tumor growth result was “slowed tumor growth”. The survival entry in the data set with B16F10 melanoma (B16F10-bearing mice, subcutaneous G-1) was “extended survival to the same extent as αPD-1”. Further, the tolerability result in the data set on B16F10 melanoma (mice) is recorded as “well tolerated”. Further, the “melanocyte differentiation state (melanin pigment production)” value in the data set with normal human melanocytes is reported as “increase the differentiation state of human melanocytes”. For the same compound, in the data set on LLC1 tumors, the survival result is recorded as “did not alter survival significantly” and the tumor growth result is given as “slowed tumor growth initially”. Moreover, in data set [4], the c-Myc result was “reduced” and the pRB result is “reduced”.
